Measurements reported in ChEMBL document CHEMBL3797127, “Design, synthesis and evaluation of pyrrolo[2,3-d]pyrimidine-phenylamide hybrids as potent Janus kinase 2 inhibitors” (Bioorg Med Chem Lett, 2016).
One block for each compound: values may come before it.

Legend:
[1] = biological target: T1, Tyrosine-protein kinase JAK3 (Homo sapiens, UniProt P52333)
T1 sequence (P52333 whole entry): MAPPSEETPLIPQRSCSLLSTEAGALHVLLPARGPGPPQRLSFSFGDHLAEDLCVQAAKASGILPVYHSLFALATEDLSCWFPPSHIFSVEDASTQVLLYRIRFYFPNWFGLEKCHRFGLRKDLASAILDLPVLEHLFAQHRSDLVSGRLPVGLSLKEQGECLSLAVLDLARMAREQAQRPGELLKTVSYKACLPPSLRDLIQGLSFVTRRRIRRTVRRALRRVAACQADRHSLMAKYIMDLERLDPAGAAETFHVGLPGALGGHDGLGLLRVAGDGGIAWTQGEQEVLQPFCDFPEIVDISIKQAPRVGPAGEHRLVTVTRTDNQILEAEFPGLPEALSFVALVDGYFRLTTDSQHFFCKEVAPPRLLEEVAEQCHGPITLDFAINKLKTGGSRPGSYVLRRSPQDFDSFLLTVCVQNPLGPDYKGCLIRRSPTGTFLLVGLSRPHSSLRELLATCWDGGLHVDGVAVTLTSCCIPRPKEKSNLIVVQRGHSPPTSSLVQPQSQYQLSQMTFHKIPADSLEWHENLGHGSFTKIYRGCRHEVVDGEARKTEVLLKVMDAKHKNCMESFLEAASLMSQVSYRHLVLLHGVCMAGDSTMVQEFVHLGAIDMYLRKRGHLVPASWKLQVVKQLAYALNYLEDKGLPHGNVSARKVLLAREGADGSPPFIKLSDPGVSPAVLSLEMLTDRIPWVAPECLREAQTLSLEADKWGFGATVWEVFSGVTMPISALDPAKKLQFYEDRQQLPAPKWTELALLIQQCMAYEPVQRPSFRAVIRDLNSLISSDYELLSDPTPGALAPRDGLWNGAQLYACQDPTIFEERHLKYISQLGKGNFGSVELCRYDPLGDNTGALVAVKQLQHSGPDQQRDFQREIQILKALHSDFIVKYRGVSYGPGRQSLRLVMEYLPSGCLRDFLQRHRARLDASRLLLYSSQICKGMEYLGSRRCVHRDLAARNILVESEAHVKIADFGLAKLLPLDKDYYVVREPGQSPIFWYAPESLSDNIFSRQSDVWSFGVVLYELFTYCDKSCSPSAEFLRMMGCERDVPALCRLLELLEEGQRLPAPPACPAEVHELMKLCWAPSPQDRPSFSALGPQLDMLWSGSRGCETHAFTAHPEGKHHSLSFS
Description: Inhibition of recombinant human GST-tagged JAK3 expressed in baculovirus expression system using Z'-LYTE Try6 peptide as substrate incubated for 1 hr by Z'-LYTE assay

in vivo [2] = details: Sprague-Dawley, rat, po, 10 mg/kg
in vivo [3] = details: Sprague-Dawley, rat, iv, 4 mg/kg
in vivo [4] = details: Sprague-Dawley, rat, iv, 4 mg/kg; remark: listed apart in the source
in vivo [5] = details: Sprague-Dawley, rat, iv, 4 mg/kg; remark: listed apart in the source
Description: Half life in Sprague-Dawley rat at 4 mg/kg, iv administered as bolus dose

in vivo [6] = details: Sprague-Dawley, rat, po, 10 mg/kg; remark: listed apart in the source
in vivo [7] = details: Sprague-Dawley, rat, iv, 4 mg/kg; remark: listed apart in the source
in vivo [8] = details: Sprague-Dawley, rat, po, 10 mg/kg; remark: listed apart in the source
Description: Half life in Sprague-Dawley rat at 10 mg/kg, po administered through gavage

in vivo [9] = details: Sprague-Dawley, rat, po, 10 mg/kg; remark: listed apart in the source
in vivo [10] = details: Sprague-Dawley, rat, iv, 4 mg/kg; remark: listed apart in the source
in vivo [11] = details: Sprague-Dawley, rat, po, 10 mg/kg; remark: listed apart in the source

- IC50 [1]: 716 nM
Compound: Cn1c(C(=O)NCCN2CCCC2)cc2c(-c3ccc(NC(=O)[C@@H]4CCCN4C(=O)OC(C)(C)C)cc3)ncnc21

- IC50 [1]: 507 nM
Compound: Cn1c(C(=O)NCCCN2CCOCC2)cc2c(-c3ccc(NC(=O)[C@@H]4CCCN4C(=O)OC(C)(C)C)cc3)ncnc21

- bioavailability (in vivo [2]): 73.6%
- AUC(0-t) at 24 h (in vivo [3]): 19700 ng·h/mL
- clearance (in vivo [4]): 3.3 mL/min/kg
- half-life (in vivo [5]): 2.09 h
- Tmax (in vivo [6]): 4 h
- Vd (in vivo [7]): 0.612 L/kg
- half-life (in vivo [8]): 2.32 h
- AUC(0-t) at 24 h (in vivo [9]): 36300 ng·h/mL
- IC50 [1]: 584 nM
- Cmax (in vivo [10]): 9730 ng/mL
- Cmax (in vivo [11]): 6140 ng/mL
Compound: Cn1c(C(=O)NCCCN2CCOCC2)cc2c(-c3ccc(NC(=O)C(C)(C)C)cc3)ncnc21

- IC50 [1]: 953 nM
Compound: Cn1c(C(=O)NCCN2CCCC2)cc2c(-c3ccc(NC(=O)C(C)(C)C)cc3)ncnc21
